Results published in PubChem BioAssay AID2050 (NMMLSC, 2009).
Calls of active or inactive are those of the source.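 Rule for the calls: active = EC50 at or below 30 µM together with a response span of at least a set limit; inactive = the rest.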

Target: GTPase HRas (Homo sapiens) (UniProt P01112)
Assay: activated Ras mutant GTP-binding inhibitors, SAR follow-up, biochemical, pyrazoline analogs, multiplex bead flow cytometry (AID 2050)
Conditions: GST-Ras beads, Bodipy-FL-GTP binding

GTPase HRas (Homo sapiens), sequence (P01112 whole entry, looked up): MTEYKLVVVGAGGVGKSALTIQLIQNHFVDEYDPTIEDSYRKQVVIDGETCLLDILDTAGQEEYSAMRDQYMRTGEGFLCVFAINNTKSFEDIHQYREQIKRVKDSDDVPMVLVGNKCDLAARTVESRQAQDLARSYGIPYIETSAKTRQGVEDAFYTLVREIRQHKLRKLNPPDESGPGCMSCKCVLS

EC50: > 30 µM (inactive)
Structure (SMILES): COc1ccc(C2CC(c3ccccc3)=NN2c2ccc([N+](=O)[O-])cc2)cc1 (stereo unspecified)
